Assay results published in patent publication US20080318789A1, “Seed germination acceleration” (priority 2007, published 2008).

Test system: canola (cv. Westar) seed
Assay: Petri plate germination study of treated canola seed at 6° C.
Assay type: in vivo
Conditions: petri plates at 6° C., n = 3 plates of 15 seeds; for Percent germinated Day 5: day 5 after treatment; for Percent germinated Day 6: day 6 after treatment; for Percent germinated Day 7: day 7 after treatment
Protocol: For all seed treatments, 1 ppm active ingredient refers to 1 microgram active ingredient per gram of seed. For these studies, GA3, GA4/7, 6BA or CPPU were each dispensed into a 15 ml centrifuge tube, and 2.5 ml of de-ionized water was then added to each tube. The solution was mixed on a vortex mixer and 0.015 ml of this solution was then placed in another 15 ml. centrifuge tube along with 0.6 grams of canola seeds (cv. Westar). Seeds were mixed by rotating 360° on a Labquake Rotisserie for 30 minutes. To simulate commercial seed treatments, the amount of solutions was just sufficient to wet the seeds. After treating, the seeds were placed in weigh boats for overnight drying. Petri plate studies: Each standard petri plate (100 mm×50 mm) contained 1 blue Anchor germination circle (3¼ inches in diameter) drenched with 8 ml of de-ionized water cooled to 6° C., Each treatment consisted of 3 petri plates of 15 seeds each. After plating, the petri plates were placed in a Nalgene plastic container pre-cooled to 6° C. The plastic container containing the petri plates was placed in a growth chamber at 6° C. with a 16-hour light cycle for the duration of the study. Seeds were visually observed daily for germination as determined by emergence of root from the seed coat. Canola seeds (cv. Westar) were treated with solutions containing GA4/7, GA3, 6BA, or CPPU. The solutions were sufficient only to wet the seeds. The amount of applied GA4/7 ([…]), GA3 (0.5, 5 or 50 ppm), 6BA (5 or 50 ppm), or CPPU (5 or 50 ppm) is expressed as ppm or micrograms of compound per gram of seed.

Structure (SMILES)	Percent germinated Day 5 (seed treatment 5 ppm) [%]	Percent germinated Day 6 (seed treatment 5 ppm) [%]	Percent germinated Day 7 (seed treatment 5 ppm) [%]	Percent germinated Day 5 (seed treatment 50 ppm) [%]	Percent germinated Day 6 (seed treatment 50 ppm) [%]	Percent germinated Day 7 (seed treatment 50 ppm) [%]	Percent germinated Day 5 (seed treatment 0.5 ppm) [%]	Percent germinated Day 6 (seed treatment 0.5 ppm) [%]	Percent germinated Day 7 (seed treatment 0.5 ppm) [%]
c1ccc(CNc2ncnc3nc[nH]c23)cc1 [6BA]	0	0	0	0	0.3	0.3	–	–	–
O=C(Nc1ccccc1)Nc1ccnc(Cl)c1 [CPPU, 1-(2-chloro-4-pyridyl)-3-phenylurea]	0	0	0.3	0	0	0	–	–	–
C=C1C[C@]23C[C@@]1(O)CC[C@H]2[C@@]12C=C[C@H](O)[C@@](C)(C(=O)O1)[C@H]2[C@@H]3C(=O)O [GA3, (1α,2β,4aα,4bβ,10β)-2,4-a,7-trihydroxy-1-methyl-8-methylenegibb-3-ene-1,10-dicarboxylic acid 1,4a-lactone]	0	0.3	0.7	0.3	2.7	5.0	0	0.3	0.3
